The test system of experiment [1] is Influenza strain A549_A/WSN/33 (H1N1). Description: Influenza antiviral assay (neuraminidase fluorescence readout). The format is cell-based, Influenza virus. The following applies: Influenza A virus, read-out: % Inhibition (EC50 class, Table 2).
The target in experiment [2] is Full length EN PA (influenza PA endonuclease) (Influenza A virus, UniProt P15659). Description: EN PA FRET inhibition assay. It is filed as biochemical. The note with it: FRET probe, mean of a minimum of two independent experiments, read-out: Potency (IC50 class, Table 3).

SMILES strings stand for the structures.

The term EC50 denotes the concentration needed to bring the measured effect to its halfway point. A word on the IC50: it is the concentration at which inhibition is half-maximal. With `CCCN1C[C@H](C(c2cccc(F)c2)c2cccc(F)c2)n2ncc(=O)c(O)c2C1=O` [Compound 74-A], the EC50 in experiment [1] is < 20 µM. The half-maximal inhibitory concentration (IC50) in experiment [2] is < 0.25 µM.

With `O=C1c2c(O)c(=O)cnn2[C@@H](C(c2cccc(F)c2)c2cccc(F)c2)CN1Cc1ccccc1` [Compound 75-A], in experiment [1], the EC50 was < 20 µM. Besides, the IC50 in experiment [2] is < 0.25 µM.

Take `CC(C)N1CC(C(c2ccccc2)c2cccc(-c3ccccc3)c2)n2ncc(=O)c(O)c2C1=O` (stereo not drawn) [Compound 78]: the EC50 in experiment [1] is < 20 µM. For the same compound, the IC50 in experiment [2] was < 0.25 µM.

Take `CCN1C[C@H](C(c2ccccc2)c2cccc(Cl)c2)n2ncc(=O)c(OC(=O)c3cccnc3)c2C1=O` (stereo partly drawn) [Compound 79-A]: the EC50 in experiment [1] is < 20 µM. The IC50 in experiment [2] is < 0.25 µM.

Regarding `CCCN1C[C@H](C(c2cccc(F)c2)c2cccc(F)c2)n2ncc(=O)c(OC(=O)C(C)C)c2C1=O` [Compound 80-A], the EC50 in experiment [1] was < 20 µM. The IC50 in experiment [2] was < 0.25 µM.

In the case of `CN1C[C@H](C2c3ccc(F)cc3CCc3c(F)cccc32)n2ncc(=O)c(O)c2C1=O` (stereo partly drawn) [Compound 81-A], the EC50 in experiment [1] is < 20 µM. The IC50 in experiment [2] was < 0.25 µM.

For `CN1C[C@@H](C2c3ccc(F)cc3CCc3c(F)cccc32)n2ncc(=O)c(O)c2C1=O` (stereo partly drawn) [Compound 81-B], the EC50 in experiment [1] lay within 20 to 100 µM. Further, in experiment [2], the IC50 was < 0.25 µM.

Consider `CN1C[C@H](C2c3cccc(F)c3CCc3c(F)cccc32)n2ncc(=O)c(O)c2C1=O` [Compound 83-A], for which the EC50 in experiment [1] is < 20 µM. Besides, in experiment [2], the IC50 is < 0.25 µM.

Turning to `CN1C[C@@H](C2c3cccc(F)c3CCc3c(F)cccc32)n2ncc(=O)c(O)c2C1=O` [Compound 83-B], in experiment [1], the EC50 is 20 to 100 µM. Also, the IC50 in experiment [2] was in the range of 0.25 to 1 µM.

As to `CN1CC(C2c3cccc(F)c3CCc3c(F)cccc32)n2ncc(=O)c(O)c2C1=O` (stereo not drawn) [Compound 83], in experiment [1], the EC50 is < 20 µM. Moreover, the IC50 in experiment [2] was < 0.25 µM.

In the case of `CCCN1C[C@H](C(c2cccc(Cl)c2)c2cccc(Cl)c2)n2ncc(=O)c(O)c2C1=O` [Compound 84-A], the EC50 in experiment [1] was < 20 µM. Further, the IC50 in experiment [2] is < 0.25 µM.

As for `CCOc1c2n(ncc1=O)[C@@H](C(c1cccc(F)c1)c1cccc(F)c1)CN(CC)C2=O` [Compound 85-A], the EC50 in experiment [1] lay in the range of 20 to 100 µM. The IC50 in experiment [2] is ≥ 1 µM.

Turning to `CC(C)CN1C[C@H](C(c2cccc(F)c2)c2cccc(F)c2)n2ncc(=O)c(O)c2C1=O` [Compound 86-A], in experiment [1], the EC50 is < 20 µM. Also, the IC50 in experiment [2] was < 0.25 µM.

On to `CCCCN1C[C@H](C(c2cccc(F)c2)c2cccc(F)c2)n2ncc(=O)c(O)c2C1=O` [Compound 87-A], for which the EC50 in experiment [1] is < 20 µM. Moreover, the IC50 in experiment [2] was < 0.25 µM.

`CCN1C[C@H](C(c2cccc(F)c2)c2cccc(F)c2)n2ncc(=O)c(OCOC(=O)Oc3ccc([N+](=O)[O-])cc3C)c2C1=O` [Compound 88-A]: in experiment [1], the EC50 is < 20 µM. In addition, the IC50 in experiment [2] fell in the range of 0.25 to 1 µM.

With `CN1C[C@H](C2c3ccc(F)cc3CCc3cc(F)ccc32)n2ncc(=O)c(O)c2C1=O` [Compound 89-A], the EC50 in experiment [1] is < 20 µM. Further, in experiment [2], the IC50 is < 0.25 µM.

In the case of `CN1C[C@@H](C2c3ccc(F)cc3CCc3cc(F)ccc32)n2ncc(=O)c(O)c2C1=O` [Compound 89-B], the EC50 in experiment [1] is < 20 µM. Besides, the IC50 in experiment [2] was < 0.25 µM.

For the compound `CN1CC(C2c3ccc(F)cc3CCc3cc(F)ccc32)n2ncc(=O)c(O)c2C1=O` (stereo not drawn) [Compound 89], the EC50 in experiment [1] was < 20 µM. In addition, the IC50 in experiment [2] is < 0.25 µM.

As to `COCC(C)(C)N1CC(C(c2ccccc2)c2ccccc2)n2ncc(=O)c(O)c2C1=O` (stereo not drawn) [Compound 90], the EC50 in experiment [1] was < 20 µM. Moreover, the IC50 in experiment [2] was < 0.25 µM.

Take `CCN1C[C@H](C(c2cccc(F)c2)c2cccc(F)c2)n2ncc(=O)c(OCOC(=O)NCCN3CCOCC3)c2C1=O` [Compound 91-A]: the 50% effective concentration (EC50) in experiment [1] was in the range of 20 to 100 µM. Moreover, the IC50 in experiment [2] is ≥ 1 µM.

Regarding `O=C1c2c(O)c(=O)cnn2[C@@H](C(c2cccc(F)c2)c2cccc(F)c2)CN1CCO` [Compound 92-A], the EC50 in experiment [1] was < 20 µM. In addition, the IC50 in experiment [2] was < 0.25 µM.

Take `O=C1c2c(O)c(=O)cnn2[C@@H](C(c2cccc(F)c2)c2cccc(F)c2)CN1CC1CC1` [Compound 93-A]: the EC50 in experiment [1] was < 20 µM. Moreover, the IC50 in experiment [2] was < 0.25 µM.

As for `CCN1C[C@H](C(c2cccc(F)c2)c2cccc(F)c2)n2ncc(=O)c(OCOC(=O)NC)c2C1=O` [Compound 94-A], the EC50 in experiment [1] is 20 to 100 µM. Moreover, the half-inhibitory concentration (IC50) in experiment [2] is ≥ 1 µM.

In the case of `CCN1C[C@H](C(c2cccc(F)c2)c2cccc(F)c2)n2ncc(=O)c(OCOC(=O)[C@@H](N)C(C)C)c2C1=O` [Compound 95-A], the EC50 in experiment [1] is < 20 µM. In addition, in experiment [2], the IC50 is < 0.25 µM.

For the compound `CC(C)[C@H](N)C(=O)OCOc1c2n(ncc1=O)[C@@H](C(c1ccccc1)c1ccccc1)CN(C(C)C)C2=O` [Compound 96-A], the EC50 in experiment [1] is < 20 µM. The IC50 in experiment [2] was < 0.25 µM.

Turning to `O=C1c2c(O)c(=O)cnn2[C@@H](C(c2ccccc2)c2ccccc2)CN1CC1CC1` [Compound 97-A], the EC50 in experiment [1] is < 20 µM. In experiment [2], the IC50 was < 0.25 µM.

Turning to `CC(C)CN1C[C@H](C(c2ccccc2)c2ccccc2)n2ncc(=O)c(O)c2C1=O` [Compound 98-A], in experiment [1], the EC50 was < 20 µM. The IC50 in experiment [2] is < 0.25 µM.

Consider `CN1CC(C(c2ccccc2)c2cccc(CC#N)c2)n2ncc(=O)c(O)c2C1=O` (stereo not drawn) [Compound 99], for which the EC50 in experiment [1] fell in the range of 20 to 100 µM. Further, the IC50 in experiment [2] was < 0.25 µM.

With `CN1CC(C(c2ccccc2)c2cccc(C#N)c2)n2ncc(=O)c(O)c2C1=O` (stereo not drawn) [Compound 100], the EC50 in experiment [1] was < 20 µM. Besides, the IC50 in experiment [2] is < 0.25 µM.

As for `CN1CC(C(c2ccccc2)c2cccc(CC(N)=O)c2)n2ncc(=O)c(O)c2C1=O` (stereo not drawn) [Compound 101], in experiment [1], the EC50 was 20 to 100 µM. Besides, in experiment [2], the IC50 was < 0.25 µM.

In the case of `CN1CC(C(c2cccc(C#N)c2)c2cccc(C#N)c2)n2ncc(=O)c(O)c2C1=O` (stereo not drawn) [Compound 102], the EC50 in experiment [1] is 20 to 100 µM. Also, in experiment [2], the IC50 was < 0.25 µM.

Turning to `CN1CC(C(Cc2ccccc2)c2ccccc2)n2ncc(=O)c(O)c2C1=O` (stereo not drawn) [Compound 103], the EC50 in experiment [1] was in the range of 20 to 100 µM. Besides, the IC50 in experiment [2] was < 0.25 µM.

Turning to `CN1CC(C(c2ccccc2)c2cccc(Cc3cnn(C)c3)c2)n2ncc(=O)c(O)c2C1=O` (stereo not drawn) [Compound 104], the EC50 in experiment [1] is < 20 µM. Further, the IC50 in experiment [2] is < 0.25 µM.

For `CN1C[C@H]([C@@H](c2ccccc2)c2cccc(OC3CC3)c2)n2ncc(=O)c(O)c2C1=O` [Compound 105-A], in experiment [1], the EC50 was < 20 µM. In addition, in experiment [2], the concentration for half-maximal inhibition (IC50) is < 0.25 µM.

For the compound `CN1C[C@H]([C@H](c2ccccc2)c2cccc(OC3CC3)c2)n2ncc(=O)c(O)c2C1=O` [Compound 105-B], the EC50 in experiment [1] is < 20 µM. In addition, in experiment [2], the IC50 was < 0.25 µM.

Take `CN1C[C@@H]([C@H](c2ccccc2)c2cccc(OC3CC3)c2)n2ncc(=O)c(O)c2C1=O` [Compound 105-C]: the EC50 in experiment [1] was < 20 µM. The IC50 in experiment [2] is 0.25 to 1 µM.

`CN1C[C@@H]([C@@H](c2ccccc2)c2cccc(OC3CC3)c2)n2ncc(=O)c(O)c2C1=O` [Compound 105-D]: the EC50 in experiment [1] was 20 to 100 µM. For the same compound, the IC50 in experiment [2] was ≥ 1 µM.

In the case of `CN1CC(C(c2ccccc2)c2cccc(OC3CC3)c2)n2ncc(=O)c(O)c2C1=O` (stereo not drawn) [Compound 105], the EC50 in experiment [1] was in the range of 20 to 100 µM. Also, the IC50 in experiment [2] is < 0.25 µM.

Consider `CC(N)C(=O)OCOc1c2n(ncc1=O)[C@@H](C(c1ccccc1)c1ccccc1)CN(C(C)C)C2=O` (stereo partly drawn) [Compound 106-A], for which the EC50 in experiment [1] is < 20 µM. The IC50 in experiment [2] was < 0.25 µM.

The values are drawn from patent US10980805B2, “Aza-pyridone compounds and uses thereof” (Janssen BioPharma, Inc., priority 2013, dated 2021).
